Test system: MMP's (particularly MMP-9) in chronic wound fluid
Details: inhibitor 2 mM, 37° C., 24 hours; % of untreated control remaining
Protocol: Collagenase sensitivity was identified as clear bands against a dark background in zymograms and could be quantitated by densitometric analysis. […] Lanes 1-6 are chronic wound fluid samples from six different patients with 500 ng of total protein loaded per sample. […] Electrophoresis was performed at 4° C. under Laemmli conditions. […] After incubation the gels were stained appropriately and protease activity was visualised as clear (unstained) bands.

## C=C(C)C(=O)NCCCC(O)(P(=O)(O)O)P(=O)(O)O [alendronate-methacrylate conjugate]
  type I collagen degradation relative to that seen in the untreated control (densitometry, FIG. 4): 30%-40%
